In paper PMC10342533, “Novel Tetrazole Derivatives Targeting Tubulin Endowed with Antiproliferative Activity against Glioblastoma Cells” (International Journal of Molecular Sciences, 2023):
Converted amounts (≈) assume the structure as drawn.

Assays:
[1] = system: MCF7 (breast adenocarcinoma); test: Cell growth inhibition, MTT assay, MCF7; format: cell-based; conditions: Homo sapiens
Description: (§1) The ability of the synthesized compounds to inhibit the cell proliferation of human cancer cell lines was assayed by measuring cell viability through the use of the MTT method 72 h after treatment. For this purpose, representative cell lines of the most frequent kinds of cancer were selected, including the following: HeLa (cervix epithelioid carcinoma), MCF7 (breast adenocarcinoma), U87 MG (glioblastoma), T98G (temozolomide resistant glioblastoma), HepG2 (hepatocellular carcinoma), HCT8 (colorectal carcinoma), and HT-29 (colon adenocarcinoma).
(§2) The cell lines were obtained from ATTC (Manassas, VA, USA). […] The cells were periodically tested for Mycoplasma infection by using a MycoAlert kit (Lonza, Norwest, Australia), and only Mycoplasma-free cells were used in the experiments.
(§3) Then, every compound was added (10 µL/well) to a final concentration of 10 µM. Untreated cells were used as negative controls. The antiproliferative activity of compounds was measured 72 h after drug exposure through the MTT assay. […] For this purpose, compounds were used at different concentrations, ranging from 10^−10 to 10^−2 M. Measurements were performed in triplicate, and each experiment was repeated three times. The IC50 values were determined using Origin software (version 9.6, OriginLab, Washington, DC, USA).

[2] = biological target: T1, microtubular protein isolated from calf brains (bovine brain tubulin) (Bos taurus, UniProt P81947+Q6B856); test: Tubulin polymerization inhibition (TPI); format: biochemical; conditions: in vitro tubulin polymerization, mean ± SD
T1 construct: from tissue; host or cells: calf (bovine) brain
Description: We evaluated the capacity of the new synthesized compounds to inhibit the polymerization of microtubular protein isolated from calf brains. The assays were performed by taking absorbance measurements to quantify the amount of polymer mass formed in the presence (or absence; negative controls) of the compounds.
Bovine brain tubulin was isolated as previously described by following a modified version of the Shelanski method. The protein was stored at −80 °C, and its concentration was determined by employing the Bradford method before each use. […] Tubulin polymerization, caused when heating the samples, was accompanied by an increase in the absorbance (at 450 nm) of the sample that was monitored by using a Helios α spectrophotometer. […] Measurements were performed in triplicate in two independent experiments using microtubular proteins from different preparations.

[3] = system: T98G (temozolomide resistant glioblastoma); test: Cell growth inhibition, MTT assay, T98G; format: cell-based; conditions: Homo sapiens
Description: as §1, §2, §3

U87 MG (glioblastoma) = test: Cell growth inhibition, MTT assay, U87 MG; format: cell-based; conditions: Homo sapiens, U-87 MG
Description: as §1, §2, §3

[4] = Aqueous solubility, shake-flask method, phosphate buffer pH 7.4; format: physicochemical; conditions: thermodynamic from solid, phosphate buffer pH 7.4, shake-flask, mean ± SD of three experiments
Description: The aqueous solubility of tetrazole derivatives was determined by the shaking flask methodology in phosphate buffer at pH 7.4, microfiltration, and quantification of the saturated solutions via UV spectroscopy. […] The introduction of polar groups on the 3-indole position was favorable since the most soluble compounds were the oximes 16–19 (38–53 µg/mL), followed by the carbaldehyde series 12–15 (33–45 µg/mL), and the carbonitrile derivatives (25–40 µg/mL), whereas the unsubstituted indoles 8–11 were the least soluble series (19–35 µg/mL).
The aqueous solubility of the compounds was determined using the saturation shake-flask method. First, calibration lines at the maximum wavelength of absorbance were determined for each compound. Then, 5 mg of each compound was suspended in 500 µL of pH 7.4 buffer, and the resulting mixture was shaken for 72 h at room temperature and filtrated over a […] filter to remove the insoluble fraction. The concentration of the compound in the supernatant (saturated solution) was determined by measuring UV absorbance at the maximum wavelength of absorbance and interpolation in the calibration line. A Helios Alfa Spectrophotometer was used for the UV measurements. The aqueous solubility values are given as the average of three independent experiments.

[5] = system: HT-29 (colon adenocarcinoma); test: Cell growth inhibition, MTT assay, HT-29, without or with verapamil; format: cell-based, human
Description: as §1
Multidrug resistance (MDR) proteins, especially P-glycoprotein (P-gp), are often involved in resistance mechanisms affecting tubulin-binding drugs that are frequently related to the failure of cancer therapies. […] These pumps are also part of the blood–brain barrier.
as §2, §3

[6] = system: HepG2 (hepatocellular carcinoma); test: Cell growth inhibition, MTT assay, HepG2; format: cell-based; conditions: Homo sapiens
Description: as §1, §2, §3

[7] = system: HeLa (cervix epithelioid carcinoma); test: Cell growth inhibition, MTT assay, HeLa; format: cell-based; conditions: Homo sapiens
Description: as §1, §2, §3

[8] = system: HCT8 (colorectal carcinoma); test: Cell growth inhibition, MTT assay, HCT8; format: cell-based; conditions: Homo sapiens
Description: as §1, §2, §3

[9] = system: HEK-293 (embryonic kidney); test: Cell growth inhibition, MTT assay, non-tumor HEK-293; format: cell-based; conditions: Homo sapiens
Description: The ability of the synthesized compounds to inhibit the cell proliferation of human cancer cell lines was assayed by measuring cell viability through the use of the MTT method 72 h after treatment. For this purpose, representative cell lines of the most frequent kinds of cancer were selected, including the following: HeLa (cervix epithelioid carcinoma), MCF7 (breast adenocarcinoma), U87 MG (glioblastoma), T98G (temozolomide resistant glioblastoma), HepG2 (hepatocellular carcinoma), HCT8 (colorectal carcinoma), and HT-29 (colon adenocarcinoma). […] The compounds were also tested against the non-tumor HEK-293 cells to study their selectivity toward cancer cells. […] The cell lines were obtained from ATTC (Manassas, VA, USA). […] The cells were periodically tested for Mycoplasma infection by using a MycoAlert kit (Lonza, Norwest, Australia), and only Mycoplasma-free cells were used in the experiments. […] Louis, MO, USA), which was dissolved in PBS at 5 mg/mL in accordance with the manufacturer's instructions. […] Untreated cells were used as negative controls. The antiproliferative activity of compounds was measured 72 h after drug exposure through the MTT assay. […] For this purpose, compounds were used at different concentrations, ranging from 10^-10 to 10^-2 M. Measurements were performed in triplicate, and each experiment was repeated three times. The IC50 values were determined using Origin software (version 9.6, OriginLab, Washington, DC, USA).

[10] = Homo sapiens, HT-29, 72 h after drug exposure
[11] = Homo sapiens, HT-29, mean ± SD, Table S1
[12] = mean ± SD, Table S1, in the presence of verapamil (10 µM)
[13] = HCT-8, 72 h after drug exposure
[14] = HEK293, 72 h, non-tumorigenic cell line
[15] = HEK293, heading: IC50 HEK-293, mean ± SD, Table S1, non-tumorigenic cell line

T1 sequence (Q6B856 whole entry): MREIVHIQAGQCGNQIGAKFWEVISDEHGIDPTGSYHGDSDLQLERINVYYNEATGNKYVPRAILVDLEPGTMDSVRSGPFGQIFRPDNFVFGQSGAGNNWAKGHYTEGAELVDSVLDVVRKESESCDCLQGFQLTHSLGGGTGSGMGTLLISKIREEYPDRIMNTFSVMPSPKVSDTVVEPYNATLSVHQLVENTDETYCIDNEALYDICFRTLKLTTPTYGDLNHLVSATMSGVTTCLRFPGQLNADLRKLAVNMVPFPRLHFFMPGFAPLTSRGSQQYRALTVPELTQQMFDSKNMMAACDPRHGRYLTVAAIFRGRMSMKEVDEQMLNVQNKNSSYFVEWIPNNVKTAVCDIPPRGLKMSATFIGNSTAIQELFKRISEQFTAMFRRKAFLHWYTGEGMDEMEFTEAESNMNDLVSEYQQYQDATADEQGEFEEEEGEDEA
T1 sequence (P81947 whole entry): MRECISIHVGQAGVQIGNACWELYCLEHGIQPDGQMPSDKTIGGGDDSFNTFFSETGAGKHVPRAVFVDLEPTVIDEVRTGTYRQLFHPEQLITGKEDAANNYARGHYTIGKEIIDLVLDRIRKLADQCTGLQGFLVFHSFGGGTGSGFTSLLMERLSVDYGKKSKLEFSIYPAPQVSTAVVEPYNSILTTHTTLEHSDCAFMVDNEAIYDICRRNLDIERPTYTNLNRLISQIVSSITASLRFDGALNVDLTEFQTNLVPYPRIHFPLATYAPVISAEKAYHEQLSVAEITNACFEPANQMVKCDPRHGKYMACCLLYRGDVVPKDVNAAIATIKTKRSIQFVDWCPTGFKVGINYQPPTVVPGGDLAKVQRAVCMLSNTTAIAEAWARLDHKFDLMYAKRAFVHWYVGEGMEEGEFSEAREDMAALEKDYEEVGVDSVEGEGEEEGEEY

Compound | IC50 ([1]; 72 h after drug exposure) | IC50 ([1]; mean ± SD, Table S1) | IC50 [2] | IC50 ([3]; 72 h, 72 h after drug exposure) | IC50 ([3]; mean ± SD, Table S1) | IC50 (U87 MG (glioblastoma); 72 h after drug exposure) | IC50 (U87 MG (glioblastoma); mean ± SD, Table S1) | solubility at 72 h [4] | IC50 [5, 10] | IC50 [5, 11] | IC50 [5, 12] | IC50 ([6]; 72 h after drug exposure) | IC50 ([7]; 72 h after drug exposure) | IC50 [8, 13] | IC50 ([8]; HCT-8, mean ± SD, Table S1) | IC50 [9, 14] | IC50 ([6]; mean ± SD, Table S1) | IC50 ([7]; mean ± SD, Table S1) | IC50 [9, 15]
CSc1cc(-c2nnnn2-c2ccc3c(c2)c(C=NO)cn3C)cc(Cl)n1 [Compound 18, 5-(5-(2-chloro-6-(methylsulfanyl)pyridin-4-yl)-1H-tetrazol-1-yl)-1-methyl-1H-indole-3-carbaldehyde oxime] | 123 nM | 123 ± 1.7 nM | 3300 ± 100 nM | 102 nM | 102 ± 1.1 nM | 93 nM | 93.4 ± 1 nM | 42.7 ± 0.5 µg/mL (≈ 107 µM) | 152 nM | 152.3 ± 1.4 nM | 150 ± 1.6 nM | 127 nM | 131 nM | 115 nM | 115 ± 1.3 nM | 6130 nM |  |  | 
CSc1cc(-c2nnnn2-c2ccc3c(c2)c(C=NO)cn3C)cc(SC)n1 [Compound 19, 5-(5-(2,6-bis(methylsulfanyl)pyridin-4-yl)-1H-tetrazol-1-yl)-1-methyl-1H-indole-3-carbaldehyde oxime] | 339 nM | 339.5 ± 2.4 nM | 4300 ± 200 nM | 294 nM | 294 ± 3 nM | 275 nM | 275 ± 2.8 nM | 47.8 ± 0.6 µg/mL (≈ 116 µM) | 355 nM | 355.5 ± 2.3 nM | 359 ± 4.1 nM | 341 nM | 307 nM | 333 nM | 333.2 ± 2.7 nM | 8310 nM | 341.4 ± 3.3 nM | 307.1 ± 2.8 nM | 
Cn1cc(C#N)c2cc(-n3nnnc3-c3cc(Cl)nc(Cl)c3)ccc21 [Compound 20, 5-(5-(2,6-dichloropyridin-4-yl)-1H-tetrazol-1-yl)-1-methyl-1H-indole-3-carbonitrile] | 631 nM | 631.4 ± 4.9 nM | 6200 ± 300 nM | 555 nM | 555.4 ± 4.2 nM | 522 nM | 522.1 ± 3.1 nM | 25.3 ± 0.1 µg/mL (≈ 68.3 µM) | 679 nM | 679.4 ± 4 nM | 682.3 ± 6.3 nM | 634 nM | 625 nM | 628 nM |  | > 10000 nM | 634.5 ± 5.6 nM | 625.4 ± 4.2 nM | > 10000 nM
COc1cc(-c2nnnn2-c2ccc3c(c2)c(C#N)cn3C)cc(Cl)n1 [Compound 21, 5-(5-(2-chloro-6-methoxypyridin-4-yl)-1H-tetrazol-1-yl)-1-methyl-1H-indole-3-carbonitrile] | 701 nM | 701.5 ± 5.2 nM | 6900 ± 300 nM | 689 nM | 689 ± 7.5 nM | 634 nM |  | 39.7 ± 0.4 µg/mL (≈ 109 µM) | 749 nM | 749.5 ± 5.1 nM | 756.2 ± 5.6 nM | 740 nM | 722 nM | 705 nM | 705.4 ± 4.9 nM | > 10000 nM | 740.3 ± 6.4 nM | 722.1 ± 5 nM | > 10000 nM
CSc1cc(-c2nnnn2-c2ccc3c(c2)c(C#N)cn3C)cc(Cl)n1 [Compound 22, 5-(5-(2-chloro-6-(methylsulfanyl)pyridin-4-yl)-1H-tetrazol-1-yl)-1-methyl-1H-indole-3-carbonitrile] | 329 nM |  | 4600 ± 200 nM | 359 nM | 359 ± 3.9 nM | 312 nM | 312.3 ± 2.6 nM | 31.2 ± 0.3 µg/mL (≈ 81.7 µM) | 355 nM | 355 ± 3.9 nM | 357 ± 3.9 nM | 327 nM | 341 nM | 335 nM | 335.3 ± 3.3 nM | > 10000 nM | 327.3 ± 2.8 nM | 341.2 ± 2.8 nM | > 10000 nM
CSc1cc(-c2nnnn2-c2ccc3c(c2)c(C#N)cn3C)cc(SC)n1 [Compound 23, 5-(5-(2,6-bis(methylsulfanyl)pyridin-4-yl)-1H-tetrazol-1-yl)-1-methyl-1H-indole-3-carbonitrile] | 963 nM | 963.3 ± 7.1 nM | 7900 ± 200 nM | 865 nM | 865.2 ± 7.2 nM | 831 nM | 831.2 ± 4.8 nM | 34.1 ± 0.3 µg/mL (≈ 86.7 µM) | 929 nM | 929.1 ± 7.8 nM | 927.5 ± 7.4 nM | 877 nM | 841 nM | 822 nM | 822.3 ± 6.7 nM | > 10000 nM | 877.2 ± 5.9 nM | 841.1 ± 6.1 nM | > 10000 nM
